How the values were obtained:
[1] = tested on: PBMCs from HLA-A*0201 SCCHN patients; assay: IFN-γ ELISPOT, PBMCs of SCCHN patients with cyclin B1 peptides; format: cell-based, human; conditions: for T cell response, IFN-γ ELISPOT: SCCHN Patient D; for HLA Class I-restricted T cell response, IFN-γ ELISPOT: SCCHN Patient B; for peptide-specific T cells, IFN-γ ELISPOT: SCCHN Patient A, absence of any in vitro stimulation; for blocking of the response with anti-Class I antibody: SCCHN Patient C
Method: (§1) IFN-γ ELISPOT Assays. IFN-g ELISPOT assays were conducted as previously described (Herr et al., J. Immunol. Methods, 191(2), 131-42 (1996)). Briefly, nitrocellulose plates (Millipore, Bedford, Mass.) were coated with the anti-IFN-γ capture mAb 1-D1K (MabTech, Stockholm, Sweden) overnight at 4° C. For assays using dendritic cells as APCs, DCs were loaded with […] of the indicated peptides for 2-6 hrs, and mixed with autologous T cells at a DC:T ratio of 1:10 for 20 hours at 37° C. For assays using autologous PBMCs as APCs, PBMCs were irradiated at 3000 Rads, loaded with […] of peptides for 4 hours, and mixed with autologous T cells at an APC:T ratio of 1:5 for 40 hours at 37° C. The T cells were seeded at 3×10^3-1×10^5 cells/well. All assays were done in serum-free AIM-V medium (Gibco Life Technologies, Grand Island, N.Y.). The plates were then washed in PBS+0.1% Tween and stained with anti-IFN-γ mAb 7-B6-1 (Mabtech) for 2 hours at 37° C. The plates were washed, and the avidin-peroxidase complex (Vectastain ABC Kit, Vector Laboratories) was added to the plates for 1 hour. The plates were then developed using AEC (Sigma) substrate, and spots were quantified microscopically with an inverted phase-contrast microscope (Carl Zeiss, Hallbergmoos, Germany) along with a computer-assisted image analysis system (KS ELISPOT). For HLA Class I blocking experiments, the W6/32 antibody was added to the APCs for 30-45 minutes prior to the incubation with the T cells.
(§2) Stimulating CD8^+ T cells from breast cancer and SCCHN patients with cyclin B1 peptides in vitro. PBMCs from cancer patients were X-irradiated at 3000 Rads, loaded with […] of the indicated peptides for 2-4 hours, and mixed with autologous PBMCs in the presence of 20 U/ml IL-2 (DuPont). The T cell cultures were fed every 3-4 days with 10 U/ml IL-2, and restimulated every 10-12 days, if necessary, using peptide-loaded autologous irradiated PBMCs. All T cell cultures were grown in RPMI medium (ICN, Costa Mesa, Calif.) supplemented with 10% human AB sera (Gemini Products, Calabasas, Calif.), L-glutamine, and penicillin/streptomycin (Life Technologies).

[2] = molecular target: T1, HLA-A2.1 (Homo sapiens, UniProt P04439, D140Y/D185E/D98H/E176V/E277Q/G131W/G231S/I119V/I121R/I166T/I218V/L300P/L318F/N151K/N90K/P208A/P217A/Q86G/Q94H/R138H/R169H/T345S); assay: HLA Class I stabilization assay on T2 cells; conditions: 20 mg/ml peptide, 18-20 hours, MA2.1 staining, >1 indicates binding
T1 construct: Peptide-induced stabilization of HLA-A2.1 molecules on T2 cells; endogenous in cells; host or cells: T2 cells
Method: HLA Class I stabilization assays. Peptide-induced stabilization of HLA-A2.1 molecules on T2 cells was done as previously described (Zeh et al., Hum. Immunol., 39(2), 79-86 (1994)). 2×10^5 T2 cells were incubated with […] of the indicated synthetic peptides in […] human B2m (Calbiochem, La Jolla, Calif.) for 18-20 hours at room temperature. The cells were then stained with the HLA-A2.1-specific antibody, MA2.1, for 45 minutes, washed with FACS Buffer (PBS, 5% FBS, and 0.01% sodium azide), and stained with a secondary FITC-conjugated anti-IgG antibody (Biosource International, Camarillo, Calif.). The cells were fixed in 4% formaldehyde prior to flow cytometry analysis. The negative control consisted of T2 cells without peptide. […] (SEQ ID NO:11). Flow cytometric analysis was done using a FACScan flow cytometer (Becton-Dickinson).

[3] = tested on: CD8+ T cells from an HLA-A*0201 healthy donor; assay: IFN-γ ELISPOT, naive CD8+ T cells of a healthy donor primed in vitro to synthetic cyclin B1 peptides; format: cell-based, human; conditions: for antigen-specific IFN-γ secretion by CD8+ T cells: healthy HLA-A2.1+ donor, after several rounds of restimulation (fourth)
Method: as §1
(§3) Priming naïve CD8^+ T cells from a healthy donor to cyclin B1 peptides in vitro. Naïve CD8^+ T cells and in vitro generated dendritic cells were purified as described above in Example 1. 2×10^4 dendritic cells were loaded overnight with […]/well peptide in 96-well U-bottom plates (Falcon, Franklin lakes, NJ) and mixed with 2×10^5 autologous naïve CD8^+ T cells the next day in the presence of 2 ng/ml IL-1b (R & D Systems, Minneapolis, Minn.), 20 U/ml IL-2 (DuPont, Wilmington, Del.), and 10 U/ml IL-4 (Schering Plough). Depending on growth kinetics, T cells were fed every 3-4 days with 10 U/ml IL-2 and 5 U/ml IL-4. T cells were restimulated every 7-10 days using peptide-loaded autologous macrophages.

[4] = tested on: MS-A2/CD80 tumor; assay: CTL assay, peptide-sensitized T cells against MS-A2/CD80; format: cell-based, human; conditions: SCCHN Patient A T cells, target MS-A2/CD80
Method: as §2
(§4) Cytotoxicity assays. 1-2×10^6 target cells were labeled with 50 mCi of Na2^51CrO4 (Amersham, Arlington Heights, Ill.) for 90 minutes at 37° C. The labeled cells were then washed three times and plated at 1×10^3 cells/well in a 96-well V-bottom plate (Costar, Cambridge, Mass.) with various numbers of effector T cells. […] Supernatants were harvested using a Skatron harvesting press (Skatron Instruments, Sterling, Va.) and counted on a Cobra II series auto gamma counting system (Packard, Meriden, Conn.). […] Percent specific lysis was calculated from the following formula: % specific lysis=100×(experimental release−spontaneous release)/(maximum release−spontaneous release).

[5] = tested on: PBMCs from HLA-A2+ breast cancer patients; assay: IFN-γ ELISPOT, PBMCs of breast cancer patients with cyclin B1 peptides; format: cell-based, human
Method: as §1, §2

[6] = tested on: MS-A2 tumor; assay: CTL assay, peptide-sensitized T cells against MS-A2; format: cell-based, human; set-up: killing of the original tumor by peptide-specific T cells: dose or concentration left out as unconfirmed
Method: as §3
Stimulating CD8^+ T cells from breast cancer and SCCHN patients with cyclin B1 peptides in vitro. PBMCs from cancer patients were X-irradiated at 3000 Rads, loaded with […] of the indicated peptides for 2-4 hours, and mixed with autologous PBMCs in the presence of 20 U/ml IL-2 (DuPont). […]
Cytotoxicity assays. […] Supernatants were harvested using a Skatron harvesting press (Skatron Instruments, Sterling, Va.) and counted on a Cobra II series auto gamma counting system (Packard, Meriden, Conn.). […] Percent specific lysis was calculated from the following formula: % specific lysis=100×(experimental release−spontaneous release)/(maximum release−spontaneous release).

[7] = tested on: K562; assay: CTL assay, peptide-sensitized T cells against K562 (LAK control); format: cell-based, human; conditions: SCCHN Patient A T cells, target K562
Method: as §2, §4

[8] = breast cancer Patient A, one in vitro stimulation
[9] = breast cancer Patient C, no in vitro stimulation
[10] = breast cancer Patient D, no in vitro stimulation

Sequence	T cell response, IFN-γ ELISPOT [1]	HLA-A2.1 Binding (MFI of T2 cells loaded with peptide / MFI of T2 cells with no peptide) [2]	antigen-specific IFN-γ secretion by CD8+ T cells [3]	HLA Class I-restricted T cell response, IFN-γ ELISPOT [1]	T cell response, IFN-γ ELISPOT [5, 8]	T cell response, IFN-γ ELISPOT [5, 10]	also measured
AGYLMELCMA (cyclin-derived polypeptide) [SEQ ID NO:5, tumor-derived cyclin B1 10-mer peptide]	appeared specific	1.58 X-Fold increase	not	–	–	–	–
AGYLMELCF (cyclin-derived polypeptide) [SEQ ID NO:3, tumor-derived cyclin B1 9-mer peptide]	–	1.42 X-Fold increase	–	HLA Class I-restricted T cell responses	–	–	–
AKYLMELTM (cyclin-derived polypeptide) [SEQ ID NO:7, human (HeLa) cyclin B1 peptide from the database]	appeared specific	2.28 X-Fold increase	–	HLA Class I-restricted T cell responses	strong HLA Class I-restricted secondary T cell responses	lower responses	peptide-specific T cells, IFN-γ ELISPOT [1]: peptide-specific T cells also were detected; lysis of tumor by T cells sensitized to the peptide [4]: able to lyse; T cell response, IFN-γ ELISPOT [5, 9]: peptide-specific HLA Class I-restricted T cell responses; blocking of the response by anti-MHC Class I antibody ([5]; breast cancer Patient D): blocked; T cell response, IFN-γ ELISPOT ([5]; breast cancer Patients E and F): did not respond
AGYLMELCFA (cyclin-derived polypeptide) [SEQ ID NO:6, tumor-derived cyclin B1 10-mer peptide]	–	2.08 X-Fold increase	not	–	–	–	–
ILKEPGSHV (HIV-POL-derived polypeptide) [reference compound]	–	–	not	–	no recognition	lower responses	–
AKYLMELTML (cyclin-derived polypeptide) [SEQ ID NO:8, human (HeLa) cyclin B1 peptide from the database]	–	2.25 X-Fold increase	–	–	strong HLA Class I-restricted secondary T cell responses	–	blocking of the response with anti-Class I antibody [1]: could be blocked
AGYLMELCC (cyclin-derived polypeptide) [SEQ ID NO:4, tumor-derived cyclin B1 9-mer peptide]	appeared specific	1.61 X-Fold increase	detected	HLA Class I-restricted T cell responses	strong HLA Class I-restricted secondary T cell responses	strong HLA Class I-restricted T cell responses	peptide-specific T cells, IFN-γ ELISPOT [1]: peptide-specific T cells also were detected; lysis of tumor by T cells sensitized to the peptide ([6]; SCCHN Patient A T cells, target MS-A2): to a lesser extent; killing of the original tumor by peptide-specific T cells ([6]; healthy donor T cells primed with high peptide concentration): unable to kill the original tumor; lysis of tumor by T cells sensitized to the peptide [4]: able to lyse; lysis by T cells sensitized to the peptide [7]: not; blocking of the T cell response by anti-Class I antibody W6/32 ([3]; healthy donor): blocked; T cell response, IFN-γ ELISPOT [5, 9]: peptide-specific HLA Class I-restricted T cell responses; T cell response, IFN-γ ELISPOT ([5]; breast cancer Patients E and F): did not respond
AGYLMELCM (cyclin-derived polypeptide) [SEQ ID NO:2, tumor-derived cyclin B1 9-mer peptide]	–	1.48 X-Fold increase	not	not	–	–	blocking of the response with anti-Class I antibody [1]: could be blocked
AGYLMELCV (cyclin-derived polypeptide) [SEQ ID NO:1, tumor-derived cyclin B1 9-mer peptide]	–	1.60 X-Fold increase	not	not	–	–	T cell response, IFN-γ ELISPOT ([5]; breast cancer Patient B (HLA-A*0206), two in vitro stimulations): weak secondary response

— patent publication US8211436B2, “Anticancer vaccine and diagnostic methods and reagents” (University of Pittsburgh—Of the Commonwealth System of …, priority 2001, dated 2012)
